ChEMBL document CHEMBL4699665, “Discovery of ANT3310, a Novel Broad-Spectrum Serine β-Lactamase Inhibitor of the Diazabicyclooctane Class, Which Strongly Potentiates Meropenem Activity against Carbapenem-Resistant Enterobacterales and Acinetobacter baumannii” (J Med Chem, 2020)
pIC50: −log10 of the molar value.

Key:
[1] = tested on: Acinetobacter baumannii; experiment: Inhibition of beta lactamase OXA in carbapenem-resistant Acinetobacter baumannii assessed as meropenem maximum concentration required for antibacterial activity at 4 ug/ml by broth microdilution method (Rvb > 32 ug/ml); conditions: dose 4.0 µg/ml
[2] = AUC in rat at 1 mg/kg, iv; format: ADME, organism-based; design: dose 1 mg/kg; conditions: in vivo
[3] = Stability in rat plasma assessed as parent compound remaining after 1 hr; format: ADME, cell-free; conditions: read-out: Stabilty
[4] = Intrinsic clearance in human hepatocytes assessed per million cells; format: ADME, cell-based, Hepatocyte; conditions: read-out: CLH
[5] = tested on: Enterobacter; experiment: Inhibition of beta lactamase OXA in carbapenem-resistant Enterobacter assessed as meropenem minimum concentration required for antibacterial activity at 4 ug/ml by broth microdilution method (reference value: 2 ug/ml); conditions: dose 4.0 µg/ml
[6] = Plasma protein binding in dog assessed as fraction unbound by LC-MS/MS analysis; format: ADME, cell-free, Canis lupus familiaris
[7] = Intrinsic clearance in mouse hepatocytes assessed per million cells; format: ADME, cell-based, Hepatocyte; conditions: read-out: CLH
[8] = tested on: Enterobacter cloacae; experiment: Potentiation of meropenem-induced antibacterial activity against Enterobacter cloacae expressing TEM-1/KPC-2 assessed as meropenem MIC at 4 ug/ml by broth microdilution method (reference value: 8 ug/ml); format: functional; conditions: dose 4 µg/ml
[9] = Stability in mouse plasma assessed as parent compound remaining after 1 hr; format: ADME, cell-free; conditions: read-out: Stabilty
[10] = tested on: Enterobacter; experiment: Inhibition of beta lactamase OXA in carbapenem-resistant Enterobacter assessed as meropenem-induced antibacterial activity by measuring meropenem MIC50 at 4 ug/ml by broth microdilution method (reference value: 16 ug/ml); conditions: dose 4.0 µg/ml
[11] = tested on: Klebsiella pneumoniae; experiment: Potentiation of meropenem-induced antibacterial activity against Klebsiella Pneumoniae ACC-00783 expressing OXA-48 infected in CD-1 mouse assessed as reduction in bacterial burden co administered with 300 mg/kg, iv meropenem; format: functional, organism-based; conditions: dose mg/kg 25-100
[12] = tested on: Klebsiella pneumoniae; experiment: Antibacterial activity against Klebsiella pneumoniae expressing SHV-11/OXA-181 by broth microdilution method; format: functional
[13] = Plasma protein binding in rat assessed as fraction unbound by LC-MS/MS analysis; format: ADME, cell-free
[14] = Plasma protein binding in human assessed as fraction unbound by LC-MS/MS analysis; format: ADME, cell-free
[15] = Inhibition of beta lactamase KPC-2 in Enterobacter cloacae assessed as decrease in enzyme activity using nitrocefin as substrate preincubated for 10 mins followed by substrate addition measured for 10 mins by fluorescence plate reader analysis
[16] = Volume of distribution in rat at 1 mg/kg, iv; format: ADME, organism-based; conditions: in vivo
[17] = Genotoxicity in Salmonella typhimurium by Ames test; format: toxicity; conditions: salmonella enterica subsp. enterica serovar typhimurium
[18] = target: Cytochrome P450 2D6 (Homo sapiens, UniProt P10635); experiment: Inhibition of CYP2D6 in human liver microsomes in presence of NADPH by LC-MS/MS analysis; format: ADME
Cytochrome P450 2D6, sequence (P10635 whole entry): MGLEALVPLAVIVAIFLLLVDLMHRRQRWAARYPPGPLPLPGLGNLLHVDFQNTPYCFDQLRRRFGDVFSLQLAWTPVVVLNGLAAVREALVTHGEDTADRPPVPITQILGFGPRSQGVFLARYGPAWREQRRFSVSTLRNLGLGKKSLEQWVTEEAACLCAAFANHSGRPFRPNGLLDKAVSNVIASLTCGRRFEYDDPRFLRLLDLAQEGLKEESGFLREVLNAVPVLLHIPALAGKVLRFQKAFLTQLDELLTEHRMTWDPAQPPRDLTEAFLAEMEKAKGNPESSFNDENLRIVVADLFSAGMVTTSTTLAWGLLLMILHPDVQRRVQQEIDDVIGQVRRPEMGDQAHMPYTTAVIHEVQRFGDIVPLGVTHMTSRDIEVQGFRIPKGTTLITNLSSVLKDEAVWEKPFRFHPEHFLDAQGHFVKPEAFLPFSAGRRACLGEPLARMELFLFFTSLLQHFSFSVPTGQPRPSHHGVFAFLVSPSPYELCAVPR

[19] = Half life in rat at 1 mg/kg, iv; format: ADME, organism-based; conditions: in vivo
[20] = target: Cytochrome P450 3A4 (Homo sapiens, UniProt P08684); experiment: Inhibition of CYP3A4 in human liver microsomes in presence of NADPH by LC-MS/MS analysis; format: ADME
Cytochrome P450 3A4, sequence (P08684 whole entry): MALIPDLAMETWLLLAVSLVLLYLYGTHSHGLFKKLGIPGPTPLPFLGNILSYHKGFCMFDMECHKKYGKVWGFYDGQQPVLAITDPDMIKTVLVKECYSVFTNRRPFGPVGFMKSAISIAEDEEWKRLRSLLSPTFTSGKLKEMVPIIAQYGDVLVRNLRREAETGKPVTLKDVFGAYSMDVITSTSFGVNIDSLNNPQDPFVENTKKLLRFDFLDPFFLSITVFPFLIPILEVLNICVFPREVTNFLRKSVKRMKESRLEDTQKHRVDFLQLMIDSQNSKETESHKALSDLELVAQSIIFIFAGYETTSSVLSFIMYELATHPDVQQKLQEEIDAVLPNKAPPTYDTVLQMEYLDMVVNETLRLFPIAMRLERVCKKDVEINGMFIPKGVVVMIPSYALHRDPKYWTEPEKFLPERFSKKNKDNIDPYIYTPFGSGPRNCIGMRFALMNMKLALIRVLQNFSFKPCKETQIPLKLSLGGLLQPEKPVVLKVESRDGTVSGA

[21] = Intrinsic clearance in dog hepatocytes assessed per million cells; format: ADME, cell-based, Canis lupus familiaris, Hepatocyte; conditions: read-out: CLH
[22] = tested on: Klebsiella pneumoniae; experiment: Antibacterial activity against Klebsiella pneumoniae expressing TEM-OSBL/CTX-M-14/OXA-48 by broth microdilution method; format: functional
[23] = tested on: Klebsiella pneumoniae; experiment: Antibacterial activity against Klebsiella pneumoniae expressing TEM-1/SHV-11/KPC-3 by broth microdilution method; format: functional

With `O=C1N2C[C@@H](CC[C@H]2F)N1OS(=O)(=O)[O-].[Na+]` the Activity [1] was > 32 µg/mL, the AUC [2] was 412 ng·h/mL and the remaining at 1 h [3] was 55%. The hepatocyte CLint [4] was < 3.4 µL/min/1e6 cells, the MIC [5] was < 0.03 µg/mL and the fraction unbound [6] was > 0.93. For the same compound, the hepatocyte CLint [7] was < 3.5 µL/min/1e6 cells, the MIC [8] was 0.03 µg/mL and the remaining at 1 h [9] was 90%. For the same compound, the MIC50 [10] was 0.12 µg/mL, the Activity [11] was “Dose-dependent effect” and the MIC [12] was 128 µg/mL. The fraction unbound [13] was > 0.93, the fraction unbound [14] was > 0.93 and the pIC50 [15] was 7.72. For the same compound, the Vd [16] was 2.2 L/kg, the Activity [17] was “Non-Toxic” and the pIC50 [18] was < 4.30. For the same compound, the half-life [19] was 38.4 min, the pIC50 [20] was < 4.30 and the hepatocyte CLint [21] was < 3 µL/min/1e6 cells. The MIC [22] was 64 µg/mL and the MIC [23] was 128 µg/mL.
